{"source": "patent US11684068B2", "about": "“Herbicidal compositions and methods of use thereof” (Valent U.S.A. LLC, priority 2018, dated 2023)", "key": {"[1]": {"test": "Wet sieve test and crystal examination after accelerated aging (long-term storage stability)", "type": "physicochemical", "description": "Variations of Composition 1 from Table 1, above, were subjected to extreme temperatures to determine long-term storage stability including the likelihood of large crystals growing that cause clogging of the spray nozzle by performing the wet sieve test. Specifically, these compositions containing various amounts of polyvinyl alcohol and ammonium sulfate were subjected to 2 weeks at 54° C. and 4 weeks at 50° C. accelerated aging. The wet sieve test typically was performed soon after the samples were brought back to room temperature using the following protocol:\nA bottle containing the composition was emptied onto a 100-mesh sieve positioned on top of a receiver. Water was added to the bottle, shaken to rinse, and the rinse solution was poured onto the mesh to wash off the material. The rinsing step was repeated until visible quantity of residue on the mesh remained constant. If necessary, additional, minimum streams of water were introduced by way of a squirt or spray bottle to further clear the mesh. Typically, about 250 milliliters of water was used for about 40 grams of sample. The mesh was then dried to a constant weight and observed under a microscope.\n(§1) Variations of Composition 2 from Table 1, above, were subjected to several conditions to determine long-term storage stability including % wet sieve test residue. Specifically, these compositions contained 0% or 2.8% w/w of polyvinyl alcohol and 0% or 2.8% w/w ammonium sulfate or 0% or 2.8% or 5.6% w/w potassium citrate and were subjected to 2 weeks at 54° C. and 4 weeks at 50° C.\nVariations of Composition 3 from Table 1 above were subjected to several conditions to determine long-term storage stability including % wet sieve test residue. Specifically, these compositions contained 0 or 2.8% w/w of polyvinyl alcohol and 0% or 2.8% w/w ammonium sulfate and were subjected to 2 weeks at 54° C.\nas §1, with “Composition 4” for “Composition 2”, “sulfate” for “sulfate or 0% or 2.8% or 5.6% w/w potassium citrate”, “C.” for “C. and 4 weeks at 50° C.”\nCompositions 5-7 from Table 1, above, were subjected to several conditions to determine long-term storage stability including % wet sieve test residue. Specifically, these compositions contained 1.4% or 1.5% w/w of polyvinyl alcohol and 2.0% or 2.8% w/w ammonium sulfate and were subjected to 2 weeks at 54° C. and 4 weeks at 50° C."}, "[2]": {"test": "Metribuzin solubility in salt solutions", "type": "physicochemical", "conditions": "saturated in ammonium sulfate, ammonium acetate and potassium citrate tribasic monohydrate solutions; FIG. 1", "description": "Metribuzin is partially soluble in water. Because of its partial solubility metribuzin grows crystals in aqueous solutions. It is a discovery of the present invention that, if water solubility of metribuzin is lowered, then crystal growth is inhibited or reduced. To determine if salts could lower the water solubility of metribuzin, metribuzin was added to the saturation point to several concentrations of ammonium sulfate, ammonium acetate and potassium citrate tribasic monohydrate solutions. Results can be seen in FIG. 1."}, "[3]": {"conditions": "variations of Composition 2, 54° C. 2 weeks and 50° C. 4 weeks"}}}
{"smiles": "N.N.O=S(=O)(O)O", "note": "[Ammonium sulfate]", "values": [{"measurement": "effect of additive on crystal growth and sieve residue", "setting": "[1]; [3]", "value": "reduced crystal growth to small crystals"}, {"measurement": "effect of additive on crystal growth and sieve residue", "setting": "[1]; variations of Composition 3, 54° C. 2 weeks", "value": "reduced the amount of crystals isolated on the sieve substantially"}, {"measurement": "effect of additive on crystal growth and sieve residue", "setting": "[1]; variations of Composition 4, 54° C. 2 weeks", "value": "inhibited crystal growth and lowered sieve residue"}]}
{"smiles": "O=C([O-])CC(O)(CC(=O)[O-])C(=O)[O-].[K+].[K+].[K+]", "note": "[Potassium citrate]", "values": [{"measurement": "effect of additive on crystal growth and sieve residue", "setting": "[1]; [3]", "value": "completely inhibited crystal growth"}]}
{"smiles": "CSc1nnc(C(C)(C)C)c(=O)n1N", "note": "[metribuzin]", "values": [{"measurement": "water solubility of metribuzin versus salt concentration", "setting": "[2]", "value": "negatively correlated"}]}
